Measurements from PubChem BioAssay (NCI).
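1) Cells in 96-well plates. 2) Compound, 48 h, 5 concentrations. 3) Linear interpolation between surrounding doses. 4) Unreached endpoint = highest concentration. At the TGI there is no net growth.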

How the values were obtained:
Test in all cases: inhibition of tumour cell growth, NCI panel, 48 h
[1] = system: LXFL 529 NSCLC
[2] = system: UACC-257 melanoma
[3] = system: EKVX NSCLC
[4] = system: HCC-2998 colon
[5] = system: UO-31 renal
[6] = system: SK-MEL-5 melanoma
[7] = system: COLO 205 colon
[8] = system: DMS 114 small cell lung
[9] = system: HOP-92 NSCLC
[10] = system: OVCAR-8 ovarian
[11] = system: KM20L2 colon
[12] = system: OVCAR-4 ovarian
[13] = system: XF 498 CNS
[14] = system: K-562 leukemia
[15] = system: NCI-H23 lung
[16] = system: SF-268 CNS
[17] = system: NCI-H460 lung
[18] = system: NCI-H522 lung
[19] = system: SF-295 CNS
[20] = system: IGROV1 ovarian
[21] = system: MALME-3M melanoma
[22] = system: SW-620 colon
[23] = system: OVCAR-5 ovarian
[24] = system: TK-10 renal
[25] = system: UACC-62 melanoma
[26] = system: 786-0 renal
[27] = system: SN12C renal
[28] = system: A549 NSCLC
[29] = system: HOP-18 NSCLC
[30] = system: M14 melanoma
[31] = system: CAKI-1 renal
[32] = system: SF-539 CNS
[33] = system: HCT-116 colon
[34] = system: HCT-15 colon
[35] = system: RPMI-8226 leukemia
[36] = system: SNB-19 CNS
[37] = system: HT29 colon
[38] = system: OVCAR-3 ovarian
[39] = system: ACHN renal
[40] = system: MOLT-4 leukemia
[41] = system: NCI-H226 lung
[42] = system: M19-MEL melanoma
[43] = system: LOX IMVI melanoma
[44] = system: SK-MEL-2 melanoma
[45] = system: CCRF-CEM leukemia
[46] = system: SK-MEL-28 melanoma
[47] = system: DMS 273 small cell lung
[48] = system: SK-OV-3 ovarian
[49] = system: HOP-62 NSCLC
[50] = system: A498 renal
[51] = system: DLD-1 colon
[52] = system: HL-60(TB) leukemia
[53] = system: KM12 colon
[54] = system: U251 CNS
[55] = system: SNB-78 CNS
[56] = system: SR leukemia
[57] = system: SNB-75 CNS
[58] = system: RXF 393 renal

Measured: TGI

N#C/C(=C\c1ccc(CP(=O)(O)O)cc1)C(N)=O
not listed: [55] | [56] | [57] | [58]
> 100 µM: all other assays above

O=C(Cc1ccccc1)Oc1ccc2c(-c3ccccc3)c(C(=O)Nc3ccc(Cl)cc3)c(=O)oc2c1
not listed: [29] | [44]
> 100 µM: all other assays above
